Tests used:
BDZ receptor = BDZ receptor binding assay (displacement of tritium labeled diazepam); conditions: cerebral cortex of Wistar rats; 2nM tritium labeled diazepam; 0 °C for 60 minutes; Ki calculated from IC50
Method: This test was carried out according to the modified method of Möhler & Okada, Science, 198, 849-851 (1977).
The BDZ receptor preparation was provided from the cerebral cortex of Wistar rats (male, 11 to 13 week-old). Inhibitory activities of the test compound were determined by the specific binding strengh of tritium labeled diazepam to the receptor. 2nM tritium labeled diazepam and an aqeuous solution of the test compound at 5 or 6 different concentrations were incubated at 0 °C for 60 minutes. The 50 % inhibitory concentration (IC₅₀) was measured by the concentration-response curve.
The inhibitory constant (Ki) was calculated according to the following equation, in which Kd is the dissociation constant of the tritium labeled diazepam and L is the concentration of the labeled ligand. [formula]

[1] = tested on: convulsion induced by pentylenetetrazol; assay: Test of potentiating convulsion induced by pentylenetetrazol (inverse agonist activity); type: in vivo, mice; conditions: Mus musculus, iv, read-out: ED₅₀
Method: (§1) Inverse agonist activity was evaluated by the following procedure. A certain amount of a test compound was administered intravenously to 8-16 male mice per group, followed by pentylenetetrazol at a subcuataneous dose of 90 mg/kg. The dose (ED₅₀) at which 50% of mice stayed alive, was calculated by the Probit method.

[2] = tested on: convulsion induced by pentylenetetrazol; assay: Test of suppressing convulsion induced by pentylenetetrazol (agonist activity); type: in vivo; conditions: Mus musculus; male mice; test compound intravenously; pentylenetetrazol subcutaneous 125 mg/kg; dose at which 50% of mice was alive; Probit method; read-out: ED₅₀
Method: as §1, with “Agonist” for “Inverse agonist”, “125” for “90”, “was” for “stayed”

Row | SMILES | Ki (BDZ receptor) | ED50 ([1]; male mice, test compound intravenously, pentylenetetrazol subcutaneous 90 mg/kg, dose at which 50% of mice stayed alive, Probit method) | ED50 [2] | ED50 [1]
1 | O=c1c2c[nH]c3ccccc3c-2nn1C1=CCCC1 [I-1, 2-(Cyclopenten-1-yl)-2,5-dihydro-3H-pyrazolo[4,3-c]quinolin-3-one] | 0.52 nM | 1.07 mg/kg |  | 
2 | COc1ccc2[nH]cc3c(=O)n(C4=CCOC4)nc-3c2c1 [I-11, 8-Methoxy-2-(2,5-dihydrofuran-3-yl)-2,5-dihydro-3H-pyrazolo[4,3-c]quinolin-3-one] | 0.69 nM |  |  | 
3 | O=c1c2c[nH]c3ccccc3c-2nn1C1=CCCCC1 [I-16] | 1.5 nM |  |  | 
4 | CC(C)/C=C/n1nc2c3ccccc3[nH]cc-2c1=O [I-21] | 0.98 nM |  | 0.72 mg/kg | 
5 | C/C=C/n1nc2c3ccccc3[nH]cc-2c1=O [I-24] | 1 nM |  |  | 0.23 mg/kg
6 | CC1CC=C(n2nc3c4ccccc4[nH]cc-3c2=O)CC1 (stereo not drawn) [I-25] | 3.1 nM |  | 0.69 mg/kg | 
7 | O=c1c2c[nH]c3ccc(F)cc3c-2nn1C1=CCCC1 [I-31] | 0.48 nM |  |  | 0.81 mg/kg
8 | COc1ccc2c3nn(C4=CCCC4)c(=O)c-3c[nH]c2c1 [I-34] | 2.1 nM |  |  | 
9 | Cc1ccc2[nH]cc3c(=O)n(C4=CCCC4)nc-3c2c1 [I-36] | 0.48 nM |  |  | 0.4 mg/kg
10 | O=c1c2c[nH]c3ccccc3c-2nn1C1=CCOC1 [I-38] | 0.59 nM |  |  | 
11 | CC1(C)C=C(n2nc3c4ccccc4[nH]cc-3c2=O)CO1 [I-39] | 0.29 nM |  | 0.19 mg/kg | 

Source: EP0478964A1, “Pyrazoloquinoline derivatives” (SHIONOGI SEIYAKU KABUSHIKI KAISHA, priority 1990, dated 1992)
